# Entries after “also recorded” stand apart in the source; their conditions may differ. Like-named read-outs stand apart in the source and are kept apart here. Marks after values point to notes of the source that are not given here. Where a SMILES comes first, the peptide text is derived from it. Where no end group is shown, it is not given here. [ ]: non-standard residue; d: D form. hArg = N=C(N)NCCCC[C@H](N)C(=O)O; 2Thi = N[C@@H](Cc1cccs1)C(=O)O; Dab = NCC[C@H](N)C(=O)O; Dap = NC[C@H](N)C(=O)O
# Assays:
# [1] = tested on: E. coli ATCC 25922; type: cell-based, Escherichia coli
# Procedure: (§1) The antimicrobial activities of the peptides were tested against E. coli ATCC 25922, P. aeruginosa ATCC 27853, carbapenem-resistant P. aeruginosa SIPI-012, A. baumannii ATCC 19606, carbapenem-resistant A. baumannii SIPI-025, S. aureus ATCC 25923, and C. albicans ATCC 10231. The minimum inhibitory concentration (MIC) values were determined using the microdilution method according to Clinical and Laboratory Standards Institute guidelines ([CLSI, 2008], [2012]). The peptides were dissolved in 10 mM PB to a concentration of 1280 μg/mL as stock solutions.
# (§2) For inoculum preparation of bacteria, morphologically similar colonies selected from fresh MH agar plates were transferred using a loop into approximately 10 mL of MH broth in a capped test tube and vortexed. The suspension was adjusted with MH broth to achieve a turbidity equivalent to a 0.5 McFarland standard (BaSO4 solution prepared spectrophotometrically). A working suspension was prepared by making a 1:15 dilution followed by a 1:20 dilution of the stock suspension with MH broth medium to obtain approximately 5 × 10^5 CFU/mL. For inoculum preparation of yeast, five fresh colonies of approximately 1 mm diameter were picked from 24-hour-old cultures of C. albicans and suspended in 5 mL of sterile 0.85% saline. The resulting suspension was vortexed and the cell density was adjusted by adding sufficient sterile saline to achieve a turbidity equivalent to a 0.5 McFarland standard. A working suspension was prepared by making a 1:100 dilution followed by a 1:20 dilution of the stock suspension with RPMI 1640 broth medium to obtain 0.5 × 10^3 to 2.5 × 10^3 CFU/mL. Intermediate twofold dilutions of the peptides were prepared in MH broth and RPMI 1640 medium, and 90 μL aliquots were added to each well in addition to 10 μL of the inoculum prepared above.
# (§3) Each plate included a growth control well and a sterility (uninoculated) control well. Colistin, vancomycin hydrochloride, and amphotericin B were used as positive controls for gram-negative bacteria, gram-positive bacteria, and fungi, respectively. The bacterial and fungal plates were incubated at 37°C for 20 h and 35°C for 48 h, respectively, both under ambient atmosphere. The inhibition of microbial growth was assessed visually. The MICs were determined from independent triplicate assays.
# [2] = tested on: proteases secreted by P. aeruginosa ATCC 27853; assay: in vitro; settings: Pseudomonas aeruginosa, P. aeruginosa ATCC 27853 culture supernatant, pH 8
# Procedure: (§4) The stabilities of the peptides toward proteases secreted by E. coli ATCC 25922, P. aeruginosa ATCC 27853, A. baumannii ATCC 19606, S. aureus ATCC 25923, and C. albicans ATCC 10231 were also examined. Microbial supernatants were prepared by resuspending single colonies of each strain in 20 mL of an appropriate culture medium followed by incubation at 37°C overnight. MH broth and 2% tryptone/2% dextrose were used as the culture media for bacteria and yeast, respectively. Each culture was then centrifuged at 12,000 × g for 10 min and the supernatant was adjusted to pH 8.0 with HCl or NaOH and then filtered through a 0.22 μm sterile filter membrane ([Zaet et al., 2017]). The peptides were then dissolved in the filtered supernatants to a concentration of 0.5 mg/mL, and the peptide-free supernatants were used as negative controls. The samples were incubated at 37°C for 24 h in a water bath and then analyzed by RP-HPLC as described above.
# [3] = tested on: proteases secreted by S. aureus ATCC 25923; assay: in vitro; settings: Staphylococcus aureus, S. aureus ATCC 25923 culture supernatant, pH 8
# Procedure: as §4
# [4] = tested on: C. albicans ATCC 10231; assay: microbe, parasite or virus in culture; type: cell-based, Candida albicans; settings: ATCC 10231, 48 h
# Procedure: as §1, §2, §3
# [5] = tested on: human erythrocytes; assay: Hemolytic activity assay; type: cell-based; settings: human RBC in PB, 37°C, 1 h, OD420, total lysis control 0.1% SDS, three technical replicates
# Procedure: Whole blood was obtained from a healthy volunteer. The red blood cells (RBC) were then centrifuged (800 × g, 10 min), washed twice with PB, resuspended in 1 mL of PB, and incubated with various concentrations of the peptides (32–128 μM) at 37°C for 1 h. As a positive control, total lysis of the RBC was accomplished by incubation with 0.1% SDS. For each condition, three technical replicates were performed. After incubation, the RBC were centrifuged at 800 × g for 10 min and the amount of hemoglobin released into the supernatant was determined by measuring the optical density OD420 using a SpectraMax i3x microplate reader (Molecular Devices) ([Zaet et al., 2017]).
# [6] = tested on: P. aeruginosa ATCC 27853; type: cell-based, Pseudomonas aeruginosa
# Procedure: as §1, §2, §3
# [7] = tested on: carbapenem-resistant P. aeruginosa (CRPA) SIPI-012; type: cell-based, Pseudomonas aeruginosa
# Procedure: as §1, §2, §3
# [8] = tested on: RAW 264.7 cells; assay: Cell viability assay (MTT); type: cell-based, mouse; settings: 1–128 μM peptide in DMEM with 4% FBS, 42 h, 595 nm, triplicate
# Procedure: The peptides were dissolved in ddH2O to a concentration of 256 μM. RAW 264.7 cells were cultured in 100 μL of DMEM containing 10% FBS and seeded at a density of 1 × 10^4 cells in a 96-well culture plate. The plate was incubated at 37°C under 5% CO2 atmosphere overnight. After attaining 80% confluency, the cells were treated with various concentrations of the peptides (1–128 μM) dissolved in DMEM containing 4% FBS for 42 h. Cytotoxicity was determined using the MTT tetrazolium reduction assay and quantified spectrophotometrically at 595 nm using a SpectraMax i3x microplate reader. The cell viability was calculated with respect to control samples treated only with DMEM containing 4% FBS ([Khara et al., 2016]). Each test was done in triplicate and the concentration required for 50% inhibition of viability (IC50) was determined.
# [9] = tested on: S. aureus ATCC 25923; assay: microbe, parasite or virus in culture; type: cell-based, Staphylococcus aureus; settings: ATCC 25923, 20 h
# Procedure: as §1, §2, §3
# [10] = tested on: A. baumannii ATCC 19606; type: cell-based, Acinetobacter baumannii
# Procedure: as §1, §2, §3
# [11] = tested on: carbapenem-resistant A. baumannii (CRAB) SIPI-025; type: cell-based, Acinetobacter baumannii
# Procedure: as §1, §2, §3
# [12] = tested on: BALB/c mice; assay: In vivo acute toxicity, single injection; design: species or system mouse; settings: monitored 24 h
# Procedure: Six-week-old mice (approximate weight: 18–20 g, SFP grade) were bred and maintained under specific pathogen-free conditions on a 12 h light/dark cycle. The peptides were dissolved in PBS (pH 7.4) and three mice were used for each dose. As a control, colistin was administered in a similar manner. The mice were monitored for 24 h and mice were weighed at the end of the experiment. The procedure was evaluated and approved by the Ethical Committee of Experimental Animals of the Chia Tai Tianqing Pharmaceutical Group in August 2019.
# As summarized in Figure 6, a toxicity score was assigned as follows: no abnormalities = without signs; mild depression, poor motility, purple-black tail, and recovery in 1 h = mild signs; serious depression and poor motility even under stimulation = manifest signs; sudden death within 10 min = died of toxic effects.
# [13] = tested on: P. aeruginosa ATCC 9027; assay: In vivo antibacterial activity, lethal intraperitoneal infection; settings: BALB/c mice, lethal i.p. dose of P. aeruginosa ATCC 9027, 10 mg/kg i.p. at 1 and 8 h post-infection, n = 10
# Procedure: The in vivo antibacterial activities of the peptides were evaluated in BALB/c mice using P. aeruginosa ATCC 9027 as a test strain. A total of 20 mice (6 weeks old, approximate weight: 18–20 g, SFP grade) were first used to measure the minimal lethal doses (MLD) with 5 mice for each inoculum. Cell numbers of selected strains were determined from the colony numbers from the plate count agar and four inocula (1 × 10^6, 5 × 10^6, 1 × 10^7, and 5 × 10^7 CFU/mouse) were administered via intraperitoneal injection. The minimal lethal dose was determined by measuring the mortality rate after 72 h. BALB/c mice were then injected intraperitoneally with a lethal dose of P. aeruginosa ATCC 9027. […] Colistin (10 mg/kg) was used as a positive control. The survival of the animals was monitored over 7 d.
# [14] = tested on: Trypsin; assay: trypsin in 0.1 M NH4HCO3 buffer (pH 8.2); settings: 37°C, up to 24 h
# [15] = plasma from healthy volunteers; settings: human, 37°C, up to 36 h
# [16] = tested on: human plasma proteases; assay: in vitro
# [17] = carbapenem-resistant (CRPA) SIPI-012, 20 h
# [18] = carbapenem-resistant (CRAB) SIPI-025, 20 h
Compound,"MIC ([1]; ATCC 25922, 20 h) [µg/mL]","remaining at 24 h, 0.5 mg/mL [3] [%]",MIC [4] [µg/mL],Hemolysis rate (%) ([5]; 64 μM),Hemolysis rate (%) ([5]; 128 μM),"MIC ([6]; ATCC 27853, 20 h) [µg/mL]","MIC [7, 17] [µg/mL]",IC50 [8] [µM],MIC [9] [µg/mL],"MIC ([10]; ATCC 19606, 20 h) [µg/mL]","MIC [11, 18] [µg/mL]",fragment found [14],fragment found [15],other results
CC(C)C[C@H](NC(=O)[C@H](Cc1ccc(O)cc1)NC(=O)[C@H](CCN)NC(=O)[C@H](CC(C)C)NC(=O)[C@H](CC(C)C)NC(=O)[C@H](CN)NC(=O)[C@H](CN)NC(=O)[C@H](Cc1ccccc1)NC(=O)[C@H](CC(C)C)NC(=O)[C@H](CCCCNC(=N)N)NC(=O)[C@@H](N)CN)C(=O)N[C@@H](CCCCNC(=N)N)C(=O)N[C@@H](CCN)C(=O)N[C@@H](Cc1cccs1)C(N)=O [UP11] (H-[Dap][hArg]LF[Dap][Dap]LL[Dab]YL[hArg][Dab][2Thi]-NH2),2,35.7 ± 3.82,4,95.65 ± 2.31,∼100.00* %,2,8,28.3 ± 5.8,1,2,2,,,"remaining at 24 h, 0.5 mg/mL [2]: 22.4 ± 1.72%"
colistin [reference compound],,,,,,,,,,,,,,"signs of toxicity after intravenous injection ([12]; single i.v. dose 10 mg/kg, three mice): two out of three mice dying immediately; signs of toxicity after intravenous injection ([12]; single i.v. dose 20 mg/kg, three mice): all three mice dying; MIC ([1]; E. coli ATCC 25922, MH broth, 37°C, 20 h, visual, independent triplicate assays): 0.25 µg/mL; MIC ([6]; P. aeruginosa ATCC 27853, MH broth, 37°C, 20 h, visual, independent triplicate assays): 0.5 µg/mL; MIC ([7]; CRPA SIPI-012, MH broth, 37°C, 20 h, visual, independent triplicate assays): 1 µg/mL; MIC ([10]; A. baumannii ATCC 19606, MH broth, 37°C, 20 h, visual, independent triplicate assays): 0.25 µg/mL; MIC ([11]; CRAB SIPI-025, MH broth, 37°C, 20 h, visual, independent triplicate assays): 0.25 µg/mL; survival rate ([13]; after 3 d): 100%; survival rate ([13]; after 7 d): 100%"
KRLFKKLLKYLRkF,,,,,,,,,,,,"(K) KLLK (Y) 6–9, major, 18 h; also recorded: (R) LFKK (L) 3–6, major, 18 h; also recorded: (K) LLK (Y) 7–9, major, 18 h; also recorded: (K) YLR (k) 10–12, major, 18 h; also recorded: (R) LFK (K) 3–5, major, 18 h; also recorded: (K) YLRkF 10–14, major, 18 h","(K) RLFK(K) 2–5, major, 12 h; also recorded: KRLFKKLLKYL (R) 1–11, major, 12 h; also recorded: (K) RLFKKLLKYLRkF 2–14, major, 12 h",
KRLFKKLLKYLRKF-NH2 [Pep05],1,22.2 ± 4.47,4,34.39 ± 1.49,49.18 ± 2.01%,2,4,13.4 ± 2.85,1,2,2,,,"signs of toxicity after intravenous injection ([12]; single i.v. dose, all tested doses (5, 10, 20 mg/kg), three mice per dose): no obvious abnormalities; metabolised at 2 h, 0.1 mg/mL [16]: > 40%; metabolised at 4 h, 0.1 mg/mL [16]: > 50%"
DapHorLFDapDapLLDabYLHorDabF,,,,,,,,,,,,"DapHorLFDapDapLLDab (Y) 1–9, major, 18 h; also recorded: DapHorLFDapDapLLDabYLHor (Dab) 1–12, major, 18 h","(Hor) LFDapDapLLDabYLHorDabF 3–14, major, 12 h; also recorded: (Dap) HorLFDapDapLLDabYLHorDabF 2–14, major, 12 h",
krLFkkLLKYLRkF,,,,,,,,,,,,"(K) YLR (k) 10–12, major, 18 h; also recorded: krLFkkLLK (Y) 1–9, major, 18 h; also recorded: (K) YLRkF 10–14, major, 18 h","(K) YLRkF 10–14, major, 12 h; also recorded: krLFkkLL (K) 1–8, major, 12 h",

# From paper PMC7688903 (Frontiers in Microbiology, 2020)
